This is an account of results in US20190338251A1, “Skeletal Muscle Precursor Cells and Production Method for Skeletal Muscle Cells” (Takeda Pharmaceutical Company Limited, priority 2016, published 2019).

What all share (format): cell-based, human
In experiment [1] the test system is 253G1 cells. In words: Study on reagent to be added: fluorescent immunostaining of induced myotube and skeletal muscle cells. The note with it: for use of one reagent instead of the reference reagent (CHIR or SB) for induction: 0.5 μM BIO or 10 μM 5B216763 instead of CHIR; for use of one reagent instead of the reference reagent (CHIR or SB) for induction / use of one reagent instead of the reference reagent (SB or FSK) for induction: 1 μM A83-01 instead of SB; for use of combined replacement reagents for induction: several reference reagents (CHIR, SB, DM, FSK) replaced at once; for use of two reagents instead of SB and DM for induction / use of one reagent instead of the reference reagent (SB or FSK) for induction: fibronectin-coated vessel (section 5-2); for use of two reagents instead of SB and DM for induction: 1 μM A83-01 and 0.1 μM LDN193189; for use of one reagent instead of the reference reagent (SB or FSK) for induction: 50 μM dbcAMP instead of FSK. The protocol: According to Reference Example 1, 253G1 cells were plated over a Matrigel-coated culture vessel. Two days thereafter, the E8 medium was replaced with B-27 medium supplemented with 5 μM CHIR and 1% AA to start differentiation (the starting day of differentiation was defined as day 0 of differentiation).
On day 2 of differentiation, the medium was replaced with B-27 medium supplemented with 1% AA, 10 μM SB and 0.5 μM DM. On day 4 of differentiation, the medium was further replaced with B-27 medium supplemented with 1% AA and 10 μM FSK. The culture was continued until day 7 of differentiation.
On day 7 of differentiation, the medium was replaced with DMEM (high glucose) medium supplemented with 10 μM FSK, 5% StemSure Serum Replacement, 1% AA and 1% ITS-G. The culture was continued with the medium replaced every 2 to 3 days.
The cells (skeletal muscle precursor cells) on week 3 of differentiation were cryopreserved in the same way as the method described in Example 3. The cryopreserved cells were thawed, plated, and cultured for 2 days in the same way as the method described in Example 3. Then, the medium was replaced with DMEM (high glucose) medium supplemented with 10 μg/mL FGF2, 10 μM FSK, 1% AA, 5% StemSure Serum Replacement and 1% ITS-G. The culture was continued for 2 weeks with the medium replaced every 2 to 3 days.
The cells thus cultured for 2 weeks were fluorescently immunostained using an antibody recognizing myosin heavy chains (R&D Systems, Inc., clone No.: MF20), an antibody recognizing desmin (Abcam plc.) and Hoechst 33342 for nuclear staining (Dojindo Laboratories). As a result, multinuclear myotube cells costained with both the antibodies were confirmed (FIG. 5, left diagram).
On week 2 of culture, the medium was replaced with growth factor- and FSK-free DMEM (low glucose) medium supplemented with 1% AA, 5% StemSure Serum Replacement and 1% ITS-G, and the culture was continued with the medium replaced. On week 4 of culture, the cells were fluorescently immunostained using an antibody recognizing α-actinin (Sigma-Aldrich Co. LLC), an antibody recognizing dystrophin (Abcam plc.) and Hoechst 33342. As a result, multinuclear skeletal muscle cells were stained (FIG. 5, right diagram).
Various changes in conditions were studied with reference to the experiment described above. The frozen cells on weeks 2 and 4 of culture were similarly fluorescently immunostained and evaluated.
Cells were obtained in the same way as the method described in the preceding section “5-1” except that a culture vessel coated with fibronectin (Sigma-Aldrich Co. LLC) instead of Matrigel was used. After thawing, myotube cells (FIG. 6, left diagram) and skeletal muscle cells (FIG. 6, right diagram) were confirmed on weeks 2 and 4, respectively, of culture.

Experiment [2] deals with 253G1 cells. The experiment in a line: Pan-mesodermal marker gene expression (real-time PCR) on day 2 of differentiation. The note with it: CHIR 1 to 6 μM, ratio to undifferentiated iPS cells. The protocol:
(§1) According to Reference Example 1, 253G1 cells were plated over a Matrigel-coated culture vessel. Two days thereafter, the E8 medium was replaced with B-27 medium supplemented with 1 to 6 μM CHIR and 1% AA to start differentiation (the starting day of differentiation was defined as day 0 of differentiation).
(§2) On day 2 of differentiation, change in the expression of pan-mesodermal marker genes BRACHYURY and TBX6 was examined. The change in gene expression was analyzed by the following procedures: total RNA was prepared using RNeasy 96 Kit or RNeasy Mini Kit (Qiagen N.V.), and cDNA was then synthesized from the total RNA using reverse transcriptase (PrimeScript RT reagent kit, Takara Bio Inc.). The obtained cDNA was subjected to real-time PCR using a Taqman probe (Applied Biosystems, Inc.). A sample prepared from the 253G1 cells before the start of differentiation was used as a reference sample. The gene expression levels of BRACHYURY and TBX6 were calculated by the comparative Ct method.

Experiment [3] deals with 253G1 cells. The experiment in a line: Somitic mesoderm marker gene expression on day 7 of differentiation. As to conditions: 2 to 4 μM CHIR days 0 to 2, then SB (and DM) days 2 to 4, then FSK days 4 to 7. The protocol: as §1, §2
On day 2 of differentiation, the medium was replaced with B-27 medium supplemented with 1% AA and 10 μM SB (and 0.3 to 1 μM DM). On day 4 of differentiation, the medium was further replaced with B-27 medium supplemented with 1% AA and 10 μM FSK. […]
On day 7 of differentiation, the expression levels of somitic mesoderm marker genes PAX3 and PAX7 were measured. […]

Regarding 6-bromoindirubin-3-oxime [BIO], in the experiment on 253G1 cells [1] (Matrigel (section 5-1)), the “use of one reagent instead of the reference reagent (CHIR or SB) for induction” value (shortened to “use … (CHIR or SB) for induction”) is listed as “it was possible” and the “use of combined replacement reagents for induction” value was “it was possible”.

Take `Cn1cc(C2=C(c3ccc(Cl)cc3Cl)C(=O)NC2=O)c2ccccc21` [5B216763, 3-(2,4-dichlorophenyl)-4-(1-methyl-1H-indol-3-yl)-1H-pyrrole-2,5-dione]: in the experiment with 253G1 cells [1] (Matrigel (section 5-1)), the “use … (CHIR or SB) for induction” value was “it was possible” and the “use of combined replacement reagents for induction” value is listed as “it was possible”.

Take `Cc1cccc(-c2nn(C(=S)Nc3ccccc3)cc2-c2ccnc3ccccc23)n1` [A83-01, 3-(6-methyl-2-pyridinyl)-N-phenyl-4-(4-quinolinyl)-1H-pyrazole-1-carbothioamide]: in the experiment on 253G1 cells [1] (Matrigel (section 5-1)), the “use … (CHIR or SB) for induction” value is given as “it was possible” and the “use of combined replacement reagents for induction” value is “it was possible”. In addition, in the experiment on 253G1 cells [1], the “use of two reagents instead of SB and DM for induction” value was “it was possible”; the “use of one reagent instead of the reference reagent (SB or FSK) for induction” value is given as “it was possible”.

Take `Cc1c[nH]c(-c2cnc(NCCNc3ccc(C#N)cn3)nc2-c2ccc(Cl)cc2Cl)n1` [CHIR, 6-[[2-[[4-(2,4-dichlorophenyl)-5-(4-methyl-1H-imidazol-2-yl)-2-pyrimidinyl]amino]ethyl]amino]nicotinonitrile]: the “BRACHYURY and TBX6 expression” value in the experiment on 253G1 cells [2] is “increase in a CHIR concentration-dependent manner”. For the same compound, the “expression of somitic mesoderm marker genes PAX3 and PAX7” value in the experiment with 253G1 cells [3] is listed as “high expression”.

As for `Cl.c1ccc2c(-c3cnn4cc(-c5ccc(N6CCNCC6)cc5)cnc34)ccnc2c1` [LDN193189, 4-[6-(4-piperazin-1-yl-phenyl)-pyrazolo[1,5-α]pyrimidin-3-yl]-quinoline hydrochloride], the “use of combined replacement reagents for induction” value with 253G1 cells [1] (Matrigel (section 5-1)) is recorded as “it was possible”. In addition, the “use of two reagents instead of SB and DM for induction” value in the experiment on 253G1 cells [1] is “it was possible”.

Turning to `CCCC(=O)Nc1ncnc2c1ncn2[C@@H]1O[C@@H]2COP(=O)(O)O[C@H]2[C@H]1OC(=O)CCC` [dbcAMP, dibutyryl cAMP], the “induction of differentiation into skeletal muscle precursor cells” value in the experiment with 253G1 cells [1] (Matrigel (section 5-1), 50 μM dbcAMP instead of FSK from day 4 of differentiation) is “it was possible to induce differentiation into skeletal muscle precursor cells”. In addition, the “use of combined replacement reagents for induction” value in the experiment on 253G1 cells [1] (Matrigel (section 5-1)) is recorded as “it was possible”. Moreover, the “use of one reagent instead of the reference reagent (SB or FSK) for induction” value in the experiment with 253G1 cells [1] is on record as “it was possible”.
